Key:
[1] = target: T1, insulin-dependent membrane tyrosine protein kinase activity (rat adipocytic membranes) (Rattus norvegicus, UniProt P15127); experiment: Rat adipocytic membrane protein tyrosine kinase activity in the presence of 100 nM insulin; assay type: biochemical
T1 construct: from tissue; host or cells: epididymal fat pad adipocyte membranes, male Sprague Dawley rats
Protocol: (§1) 100% activity represents the activity in the absence of added chromium complexes or their components. 25 μL of a rat membrane suspension corresponding to 0.0895 mg protein/mL was utilized.
(§2) Fat cells from male Sprague Dawley rats were isolated using the procedures of Rodbell^19 and Anderson et al.^20 with modifications.^2 Three rats (not kept on a Cr-deficient diet) were sacrificed by decapitation, and their epididymal fat pads removed. Rat adipocytes were washed with 1% bovine serum albumin (BSA). 50 mM Hepes, pH 7.4 buffer containing 10 μg/mL leupeptin and 5 μg/mL aprotinin. Cells were homogenized with a manual teflon homogenizer and frozen and thawed five times. The lipid layer was removed, and the cell homogenate was centrifuged for one hour at 40,000 g. The supernatant was removed, and the pellet was suspended in Hepes buffer and used as the source of membrane phosphatase and kinase activity. Protein concentrations were analyzed using the BCA method (Pierce Chemical Co.) with BSA as standard.

[2] = system: membrane phosphotyrosine protein phosphatase (rat adipocytic membranes); experiment: Rat adipocytic membrane phosphotyrosine phosphatase activity, p-NPP substrate; assay type: biochemical; conditions: 5 mM p-NPP
Protocol: 125 μL of a rat membrane suspension corresponding to 0.0856 mg of protein/mL was utilized.
as §1, §2
p-nitrophenyl phosphate (p-NPP) was used to determine the amount of PTP activity using the method of Li et al.^21 The assay used 5 mM substrate in 0.05 M Tris, pH 7.5, unless noted. Activation of PTP activity by LMWCr and other Cr-containing species was examined as described by Davis et al.^2 Solutions of LMWCr, 1,2, and the Cr-amino acid mixture were incubated with the enzyme for fifteen minutes at 37° C. before initiation of the reaction. Hydrolyses proceeded for one hour at 37° C. The extent of hydrolysis was determined at 404 nm (ε=1.78×10^4M^−1cm^−1).

[3] = system: adult-onset diabetic patients; conditions: cited from earlier work

T1 sequence (P15127 764-1383 limits assumed): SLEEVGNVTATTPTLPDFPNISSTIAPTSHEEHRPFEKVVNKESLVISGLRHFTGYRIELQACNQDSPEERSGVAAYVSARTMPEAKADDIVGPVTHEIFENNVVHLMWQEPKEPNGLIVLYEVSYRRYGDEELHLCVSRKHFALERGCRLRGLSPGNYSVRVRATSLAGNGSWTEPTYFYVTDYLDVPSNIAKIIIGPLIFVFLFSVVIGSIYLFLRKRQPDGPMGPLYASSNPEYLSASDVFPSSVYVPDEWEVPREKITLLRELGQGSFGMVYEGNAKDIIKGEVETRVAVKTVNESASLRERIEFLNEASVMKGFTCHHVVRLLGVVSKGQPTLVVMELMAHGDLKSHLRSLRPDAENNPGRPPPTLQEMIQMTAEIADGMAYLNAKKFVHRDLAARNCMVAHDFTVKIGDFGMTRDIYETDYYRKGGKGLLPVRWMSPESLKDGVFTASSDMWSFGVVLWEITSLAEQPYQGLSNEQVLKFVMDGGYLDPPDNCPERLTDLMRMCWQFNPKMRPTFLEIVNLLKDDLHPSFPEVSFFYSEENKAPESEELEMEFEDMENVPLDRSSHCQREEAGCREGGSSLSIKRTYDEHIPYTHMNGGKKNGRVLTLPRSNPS
T1 sequence (P15127 27-759 partner limits assumed): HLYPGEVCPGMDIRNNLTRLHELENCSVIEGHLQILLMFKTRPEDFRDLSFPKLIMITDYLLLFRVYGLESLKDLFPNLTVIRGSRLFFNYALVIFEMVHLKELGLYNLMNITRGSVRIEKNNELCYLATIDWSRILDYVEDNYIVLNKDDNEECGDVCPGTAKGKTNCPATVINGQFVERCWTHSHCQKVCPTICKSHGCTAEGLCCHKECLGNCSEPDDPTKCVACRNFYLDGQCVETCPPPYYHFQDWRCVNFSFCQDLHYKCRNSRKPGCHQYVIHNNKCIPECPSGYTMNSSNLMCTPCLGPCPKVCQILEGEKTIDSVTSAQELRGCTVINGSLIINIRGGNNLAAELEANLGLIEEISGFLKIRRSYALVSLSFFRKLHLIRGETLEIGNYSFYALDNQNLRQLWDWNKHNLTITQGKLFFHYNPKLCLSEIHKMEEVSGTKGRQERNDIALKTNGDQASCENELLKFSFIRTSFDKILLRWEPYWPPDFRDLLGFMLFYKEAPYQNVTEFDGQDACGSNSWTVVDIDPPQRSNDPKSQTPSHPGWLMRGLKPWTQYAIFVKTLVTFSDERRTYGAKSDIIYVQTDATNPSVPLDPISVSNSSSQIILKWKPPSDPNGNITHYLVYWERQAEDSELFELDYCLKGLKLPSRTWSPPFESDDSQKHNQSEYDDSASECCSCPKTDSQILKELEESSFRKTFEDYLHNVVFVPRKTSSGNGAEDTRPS
T1 sequence (P01317 25-54 partner limits assumed): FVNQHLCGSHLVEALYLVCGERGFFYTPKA
T1 sequence (P01317 85-105 partner limits assumed): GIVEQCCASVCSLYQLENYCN

effect on insulin-dependent membrane kinase activity [1] | effect on membrane phosphatase activity [2] | Compound | insulin requirements ([3]; 138 adult-onset diabetic patients) | glycemic control ([3]; 180 adult-onset diabetic patients)
do not potentiate | do not potentiate | CCC(=O)O [Propionic acid] |  | 
inhibits | inhibits | [Cr3O(O2CCH3)6 (H2O)3]Cl [compound 2] |  | 
 |  | chromium(III) picolinate | reduced insulin requirements | improved glycemic control

Compound | effect on insulin-dependent membrane kinase activity [1] | effect on membrane phosphatase activity [2] | insulin requirements ([3]; 138 adult-onset diabetic patients) | glycemic control ([3]; 180 adult-onset diabetic patients)
O=[N+]([O-])O [nitrate] | do not potentiate | do not potentiate |  | 

Reference: patent US6881752B2 (University of Alabama, priority 1998, dated 2005)
